These results are taken from US20080227797A1, “Pyridopyrimidine Derivatives as Pde4 Inhibitors for the Treatment of Inflammatory and Immune Diseases” (ASTRAZENECA AB, priority 2005, published 2008).

Sequence of recombinant Human Phosphodiesterase B2 (PDE4B2) (Q07343 1-564 isoform Q07343-2): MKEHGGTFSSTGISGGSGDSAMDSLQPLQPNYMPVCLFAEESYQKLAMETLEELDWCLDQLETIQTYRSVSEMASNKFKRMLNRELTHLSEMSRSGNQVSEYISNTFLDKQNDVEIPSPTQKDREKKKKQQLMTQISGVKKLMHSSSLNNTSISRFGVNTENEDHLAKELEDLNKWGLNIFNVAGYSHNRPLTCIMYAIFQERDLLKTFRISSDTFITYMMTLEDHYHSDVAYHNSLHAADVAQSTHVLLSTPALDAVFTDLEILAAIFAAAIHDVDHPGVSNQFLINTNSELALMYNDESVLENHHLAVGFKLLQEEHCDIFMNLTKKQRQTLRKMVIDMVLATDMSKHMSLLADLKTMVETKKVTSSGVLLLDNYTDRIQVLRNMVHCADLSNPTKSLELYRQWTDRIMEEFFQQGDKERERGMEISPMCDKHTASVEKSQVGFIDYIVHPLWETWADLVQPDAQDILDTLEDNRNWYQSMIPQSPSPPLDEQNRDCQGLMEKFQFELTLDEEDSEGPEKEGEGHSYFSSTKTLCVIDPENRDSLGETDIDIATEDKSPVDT

For this assay, the target named is recombinant Human Phosphodiesterase B2 (PDE4B2) (Homo sapiens, UniProt Q07343). The assay is described as follows: Human Phosphodiesterase B2 Alpha Screen Assay. In kind it is biochemical. Particulars: cAMP substrate, Alpha Screen cAMP kit, 60 minutes at room temperature. The procedure:
Human Phosphodiesterase B2 Alpha Screen Assay
The assay uses recombinant Human Phosphodiesterase B2 (PDE4B2) produced in house (PrAZL0133), stored at −20° C. The substrate uses cAMP, part of the Alpha Screen cAMP kit (Perkin Elmer, Cat# 6760625M), stored at 4° C. The Alpha Screen kit also includes biotinylated cAMP, acceptor and donor beads.
The assay additions were as follows: Test compounds and controls were added to white 384-well flat-bottom plates (Greiner, Cat# 781075), 0.2 μl in 100% DMSO, followed by 10 μl PDE4B2 in reaction buffer. The reaction buffer constitution was: 50 mM Tris (pH 7.5), 8.3 mM MgCl2, 1.7 mM EGTA and 0.01% (w/v) Brij®35. The enzyme and the compounds were incubated at room temperature for 15 minutes. Then 10 μl cAMP in reaction buffer was added. The assay was stopped after 60 minutes incubation at room temperature by adding 10 μl acceptor beads in detection buffer with 40 mM EDTA. The detection buffer constitution was: 5 mM Tris (pH 7.5), 0.1% (w/v) BSA and 0.1% (v/v) Tween 20. This addition followed by an addition of 10 μl donor beads in detection buffer, with biotinylated cAMP. The plates were then incubated, dark at room temperature, for 5 hours followed by measurement on a Fusion™-α analyser. IC50 values (presented in Table 1) were determined using Xlfit curve fitting using model 205.
Turning to `COC(=O)c1cccc(C(=O)N[C@H]2CC[C@@H](n3c(=O)c4cc(F)cnc4n(-c4ccc(F)c(F)c4)c3=O)CC2)c1` [Example 29, methyl 3-[({cis-4-[1-(3,4-difluorophenyl)-6-fluoro-2,4-dioxo-1,4-dihydropyrido[2,3-d]pyrimidin-3(2H)-yl]cyclohexyl}amino)carbonyl]benzoate], the IC50 (commonly the point on the concentration scale where inhibition reaches its midpoint) is 1.2 nM.
Regarding `O=C(N[C@H]1CC[C@@H](n2c(=O)c3cc(F)cnc3n(-c3ccc(F)c(F)c3)c2=O)CC1)c1cc(Cl)ccc1O` [Example 4, 5-chloro-N-{cis-4-[1-(3,4-difluorophenyl)-6-fluoro-2,4-dioxo-1,4-dihydropyrido[2,3-d]pyrimidin-3(2H)-yl]cyclohexyl}-2-hydroxybenzamide], the IC50 stood at 5 nM.
Consider `COc1cccc(C(=O)N[C@H]2CC[C@@H](n3c(=O)c4cc(F)cnc4n(-c4ccc(F)c(F)c4)c3=O)CC2)c1O` [Example 17, N-{cis-4-[1-(3,4-difluorophenyl)-6-fluoro-2,4-dioxo-1,4-dihydropyrido[2,3-d]pyrimidin-3(2H)-yl]cyclohexyl}-2-hydroxy-3-methoxybenzamide], for which the IC50 turned out to be 1.8 nM.
Next, `O=C(N[C@H]1CC[C@@H](n2c(=O)c3cc(F)cnc3n(-c3ccc(F)c(F)c3)c2=O)CC1)c1cccc(O)c1` [Example 5, N-{cis-4-[1-(3,4-difluorophenyl)-6-fluoro-2,4-dioxo-1,4-dihydropyrido[2,3-d]pyrimidin-3(2H)-yl]cyclohexyl}-3-hydroxybenzamide]: 2.2 nM; `COC(=O)CCCC(=O)N[C@H]1CC[C@@H](n2c(=O)c3cc(F)cnc3n(-c3ccc(F)c(F)c3)c2=O)CC1` [Example 27, methyl 5-({cis-4-[1-(3,4-difluorophenyl)-6-fluoro-2,4-dioxo-1,4-dihydropyrido[2,3-d]pyrimidin-3(2H)-yl]cyclohexyl}amino)-5-oxopentanoate]: 1.7 nM.
As for `O=C([C@H](O)c1ccccc1)N1CCC(n2c(=O)c3cc(F)cnc3n(-c3ccc(F)c(F)c3)c2=O)CC1` [Example 77, 1-(3,4-difluorophenyl)-6-fluoro-3-{1-[(2R)-2-hydroxy-2-phenylacetyl]piperidin-4-yl}pyrido[2,3-d]pyrimidine-2,4(1H,3H)-dione], the concentration for half-maximal inhibition (IC50) worked out at 147 nM.
Next, `O=C(c1cc(CO)ccc1O)N1CCC(n2c(=O)c3cc(F)cnc3n(-c3ccc(F)c(F)c3)c2=O)CC1` [Example 78, 1-(3,4-difluorophenyl)-6-fluoro-3-{1-[2-hydroxy-5-(hydroxymethyl)benzoyl]piperidin-4-yl}pyrido[2,3-d]pyrimidine-2,4(1H,3H)-dione]: 293 nM; `O=C(N[C@H]1CC[C@@H](n2c(=O)c3cc(F)cnc3n(-c3ccc(F)c(F)c3)c2=O)CC1)c1ccc(O)cc1` [Example 6, N-{cis-4-[1-(3,4-difluorophenyl)-6-fluoro-2,4-dioxo-1,4-dihydropyrido[2,3-d]pyrimidin-3(2H)-yl]cyclohexyl}-4-hydroxybenzamide]: 2.3 nM.
In the case of `COC(=O)c1cccc(-n2c(=O)n([C@H]3CC[C@@H](NC(=O)[C@@H]4CCCN4C)CC3)c(=O)c3cc(F)cnc32)c1` [Example 49, Methyl 3-[6-fluoro-3-{cis-4-[(1-methyl-L-prolyl)amino]cyclohexyl}-2,4-dioxo-3,4-dihydropyrido[2,3-d]pyrimidin-1(2H)-yl]benzoate], the half-inhibitory concentration (IC50) turned out to be 14.5 nM.
Then `O=C(N[C@H]1CC[C@@H](n2c(=O)c3cc(F)cnc3n(-c3ccc(F)c(F)c3)c2=O)CC1)c1ccc2ncsc2c1` [Example 91, N-{cis-4-[1-(3,4-difluorophenyl)-6-fluoro-2,4-dioxo-1,4-dihydropyrido[2,3-d]pyrimidin-3(2H)-yl]cyclohexyl}-1,3-benzothiazole-6-carboxamide], with 2.09 nM; and `COC(=O)c1cccc(-n2c(=O)n([C@H]3CC[C@@H](NC(C)=O)CC3)c(=O)c3cc(F)cnc32)c1` [Example 67, methyl 3-[3-[cis-4-(acetylamino)cyclohexyl]-6-fluoro-2,4-dioxo-3,4-dihydropyrido[2,3-d]pyrimidin-1(2H)-yl]benzoate], with 21.2 nM; and `O=C(N[C@H]1CC[C@@H](n2c(=O)c3cc(F)cnc3n(-c3ccc(F)c(F)c3)c2=O)CC1)c1n[nH]c2ccccc12` [Example 32, N-{cis-4-[1-(3,4-difluorophenyl)-6-fluoro-2,4-dioxo-1,4-dihydropyrido[2,3-d]pyrimidin-3(2H)-yl]cyclohexyl}-1H-indazole-3-carboxamide], with 0.6 nM.
Turning to `O=C([C@H](O)C1CCCCC1)N1CC[C@@H](n2c(=O)c3cc(F)cnc3n(-c3ccc(F)c(F)c3)c2=O)C1` [Example 81, 3-{(3R)-1-[(2R)-2-cyclohexyl-2-hydroxyacetyl]pyrrolidin-3-yl}-1-(3,4-difluorophenyl)-6-fluoropyrido[2,3-d]pyrimidine-2,4(1H,3H)-dione], the IC50 turned out to be 8.1 nM.
As to `C=Cc1ccc(C(=O)N[C@H]2CC[C@@H](n3c(=O)c4cc(F)cnc4n(-c4ccc(F)c(F)c4)c3=O)CC2)cc1` [Example 101, N-{cis-4-[1-(3,4-difluorophenyl)-6-fluoro-2,4-dioxo-1,4-dihydropyrido[2,3-d]pyrimidin-3(2H)-yl]cyclohexyl}-4-vinylbenzamide], the half-maximal inhibitory concentration (IC50) was determined as 2.05 nM.
For `O=C(N[C@H]1CC[C@@H](n2c(=O)c3cc(F)cnc3n(-c3ccc(F)c(F)c3)c2=O)CC1)c1ccc2[nH]cnc2c1` [Example 88, N-{cis-4-[1-(3,4-difluorophenyl)-6-fluoro-2,4-dioxo-1,4-dihydropyrido[2,3-d]pyrimidin-3(2H)-yl]cyclohexyl}-1H-benzimidazole-5-carboxamide], the half-maximal inhibitory concentration (IC50) turned out to be 3.38 nM.
Then `Cc1ccc(C(=O)N[C@H]2CC[C@@H](n3c(=O)c4cc(F)cnc4n(-c4ccc(F)c(F)c4)c3=O)CC2)c(O)c1` [Example 9, N-{cis-4-[1-(3,4-difluorophenyl)-6-fluoro-2,4-dioxo-1,4-dihydropyrido[2,3-d]pyrimidin-3(2H)-yl]cyclohexyl}-2-hydroxy-4-methylbenzamide], with 1.3 nM.
Next, `COc1cc(C(=O)N[C@H]2CC[C@@H](n3c(=O)c4cc(F)cnc4n(-c4ccc(F)c(F)c4)c3=O)CC2)ccc1O` [Example 14, N-{cis-4-[1-(3,4-difluorophenyl)-6-fluoro-2,4-dioxo-1,4-dihydropyrido[2,3-d]pyrimidin-3(2H)-yl]cyclohexyl}-4-hydroxy-3-methoxybenzamide]: 1.5 nM; `CN1CCCC(C(=O)N[C@H]2CC[C@@H](n3c(=O)c4cc(F)cnc4n(-c4ccc(F)c(F)c4)c3=O)CC2)C1` (relative stereo) [Example 99, N-{cis-4-[1-(3,4-difluorophenyl)-6-fluoro-2,4-dioxo-1,4-dihydropyrido[2,3-d]pyrimidin-3(2H)-yl]cyclohexyl}-1-methylpiperidine-3-carboxamide]: 6.01 nM.
Then `O=C(N[C@H]1CC[C@@H](n2c(=O)c3cc(F)cnc3n(-c3ccc(F)c(F)c3)c2=O)CC1)c1cn[nH]c1` [Example 94, N-{cis-4-[1-(3,4-difluorophenyl)-6-fluoro-2,4-dioxo-1,4-dihydropyrido[2,3-d]pyrimidin-3(2H)-yl]cyclohexyl}-1H-pyrazole-4-carboxamide], with 5.31 nM.
Consider `O=C(N[C@H]1CC[C@@H](n2c(=O)c3cc(F)cnc3n(-c3ccc(F)c(F)c3)c2=O)CC1)c1csnn1` [Example 93, N-{cis-4-[1-(3,4-difluorophenyl)-6-fluoro-2,4-dioxo-1,4-dihydropyrido[2,3-d]pyrimidin-3(2H)-yl]cyclohexyl}-1,2,3-thiadiazole-4-carboxamide], for which the IC50 turned out to be 11.7 nM.
With `O=C(N[C@H]1CC[C@@H](n2c(=O)c3cc(F)cnc3n(-c3ccc(F)c(F)c3)c2=O)CC1)c1ccc2[nH]nnc2c1` [Example 90, N-{cis-4-[1-(3,4-difluorophenyl)-6-fluoro-2,4-dioxo-1,4-dihydropyrido[2,3-d]pyrimidin-3(2H)-yl]cyclohexyl}-1H-1,2,3-benzotriazole-5-carboxamide], the IC50 was found to be 6.11 nM.
Then `CS(=O)(=O)c1cccc(-n2c(=O)n([C@H]3CC[C@@H](NC(=O)[C@@H](O)c4ccccc4)CC3)c(=O)c3cc(F)cnc32)c1` [Example 43, (2S)-N-{cis-4-[6-fluoro-1-[3-(methylsulfonyl)phenyl]-2,4-dioxo-1,4-dihydropyrido[2,3-d]pyrimidin-3(2H)-yl]cyclohexyl}-2-hydroxy-2-phenylacetamide], with 36.4 nM.
Then `O=C(Cc1cccc(O)c1)N[C@H]1CC[C@@H](n2c(=O)c3cc(F)cnc3n(-c3ccc(F)c(F)c3)c2=O)CC1` [Example 28, N-{cis-4-[1-(3,4-difluorophenyl)-6-fluoro-2,4-dioxo-1,4-dihydropyrido[2,3-d]pyrimidin-3(2H)-yl]cyclohexyl}-2-(3-hydroxyphenyl)acetamide], with 0.9 nM; and `CSc1cccc(-n2c(=O)n([C@H]3CC[C@@H](NC(=O)c4cc(CO)ccc4O)CC3)c(=O)c3cc(F)cnc32)c1` [Example 36, N-{cis-4-[6-fluoro-1-[3-(methylthio)phenyl]-2,4-dioxo-1,4-dihydropyrido[2,3-d]pyrimidin-3(2H)-yl]cyclohexyl}-2-hydroxy-5-(hydroxymethyl)benzamide], with 2.9 nM.
